For data set [1] the following is noted: suffering and junctival irritation of the operator; cited from earlier work.
Data set [2] in a line: Stability of DECP, CP and KTZ in rat plasma under storage conditions. The conditions noted are these: for Short term stability, Measured / Short term stability, RE: 25 °C for 3 h; for stability throughout the whole manipulation and storage processes: short term, long term, freeze-thaw; for Long term stability, Measured / Long term stability, RE: −80 °C for 3 months; for Three freeze−thaw cycles, Measured / Three freeze−thaw cycles, RE: −80°C to 25°C. It counts as physicochemical.

For data set [3], the system named is CYP2C9. The conditions noted are these: C-4 oxidation of CP; cited from earlier work.
Data set [4] deals with CYP3A4. The conditions noted are these: C-4 oxidation of CP; cited from earlier work.
Data set [5] relates to CYP2B6. Conditions: C-4 oxidation of CP; cited from earlier work.
Data set [6] has as its target T1, CYP3A4 (Homo sapiens, UniProt P08684). Description: in vitro. Conditions: human liver microsomes. (Microsomes from liver hold many membrane-bound enzymes, among them those of drug oxidation.)
Data set [7] has as its system CYP3A4. Conditions: cited from earlier work.
The nature of data set [8]: Pharmacokinetic study in rats: CP and DECP with and without KTZ, KTZ alone. The data set is classed as in vivo. The conditions noted are these: rat, plasma; for AUC(0-inf): AUC0→∞; for MRT inf: MRT0–∞.
The subject of data set [9] is rats. Description: Toxicity observation in rats after single dose KTZ. The data set is classed as in vivo, rat.
Data set [10] addresses T1, CYP3A4. Description: KTZ inhibition of CP conversion to DECP in HLM. The conditions noted are these: human liver microsomes, probe CP (cyclophosphamide).
[11] abbreviates: iv, 10 mg/kg, Group 1 (0 mg/kg KTZ), CP 10 mg/kg i.v., rats.
Setting [12] is: iv, 10 mg/kg, Group 2 (10 mg/kg KTZ oral, 50 min before), CP 10 mg/kg i.v., rats.
The mark [13] stands for this setting: iv, 10 mg/kg, Group 3 (20 mg/kg KTZ oral, 50 min before), CP 10 mg/kg i.v., rats.
[14] abbreviates: iv, 10 mg/kg, Group 4 (40 mg/kg KTZ oral, 50 min before), CP 10 mg/kg i.v., rats.

T1 sequence (P08684 whole entry): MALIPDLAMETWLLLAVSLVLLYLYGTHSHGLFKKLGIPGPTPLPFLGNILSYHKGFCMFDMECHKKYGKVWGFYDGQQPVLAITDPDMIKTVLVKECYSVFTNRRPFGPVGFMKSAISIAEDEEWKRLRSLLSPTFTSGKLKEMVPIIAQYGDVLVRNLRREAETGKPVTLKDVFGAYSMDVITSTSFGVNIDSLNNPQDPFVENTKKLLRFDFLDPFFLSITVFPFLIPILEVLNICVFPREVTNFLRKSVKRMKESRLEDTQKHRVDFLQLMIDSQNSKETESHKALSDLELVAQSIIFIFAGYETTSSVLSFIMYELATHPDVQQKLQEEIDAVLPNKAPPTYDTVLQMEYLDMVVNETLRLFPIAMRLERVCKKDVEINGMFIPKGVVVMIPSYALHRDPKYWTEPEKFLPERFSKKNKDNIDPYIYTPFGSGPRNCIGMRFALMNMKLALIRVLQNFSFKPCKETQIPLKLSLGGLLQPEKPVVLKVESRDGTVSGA

Take `O=CCCl` [CAA, chloroacetaldehyde]: the “exposure level at which dangerous” value in data set [1] is 45 ppm.
In the case of `O=P1(N(CCCl)CCCl)NCCCO1` (stereo not drawn) [CP, Cyclophosphamide], the figures for the “Short term stability, Measured” value in data set [2] (nominal 20 ng/ml), in data set [2] (nominal 80 ng/ml) and in [2] (nominal 500 ng/ml) were 20.57 ± 0.81 ng/mL, 84.49 ± 2.05 ng/mL and 525.40 ± 73.09 ng/mL, respectively. In addition, the “Short term stability, RE” value in [2] (nominal 20 ng/ml) was determined as 2.85%; in data set [2] (nominal 80 ng/ml), 5.61%; in [2] (nominal 500 ng/ml), 5.08%. In [2], the “stability throughout the whole manipulation and storage processes” value is “stable”. The “Long term stability, Measured” value was found to be 18.79 ± 0.42 ng/mL in data set [2] (nominal 20 ng/ml), 81.16 ± 2.40 ng/mL in data set [2] (nominal 80 ng/ml) and 509.89 ± 68.17 ng/mL in data set [2] (nominal 500 ng/ml). The “Long term stability, RE” value in [2] (nominal 20 ng/ml) is −6.05%; in data set [2] (nominal 80 ng/ml), 1.45%; in [2] (nominal 500 ng/ml), 1.98%. In addition, the results for the “Three freeze−thaw cycles, Measured” value in [2] (nominal 20 ng/ml), in data set [2] (nominal 80 ng/ml) and in [2] (nominal 500 ng/ml) were 18.68 ± 0.20 ng/mL, 78.39 ± 1.43 ng/mL and 490.26 ± 78.18 ng/mL, respectively. Also, the “Three freeze−thaw cycles, RE” value was −6.60% in data set [2] (nominal 20 ng/ml), −2.01% in data set [2] (nominal 80 ng/ml) and −1.95% in [2] (nominal 500 ng/ml). Besides, the entries for the “share of the total CP bioactivation” value in [3], in [4] and in data set [5] were 12%, 25% and “approximately 45%”, respectively. In addition, the Km (in general, the concentration of substrate that gives half-maximal velocity) in data set [6] worked out at 160 µM. Also, in data set [7], the “part of CP dechloroethylated to DECP and CAA” value is reported as “about 10%”. For the same compound, the area under the curve AUC(0-t) (commonly the area under the concentration-time curve up to a stated or last time point) in data set [8] (iv, 10 mg/kg, AUC0→t, Group 2 (10 mg/kg KTZ oral, 50 min before), CP 10 mg/kg i.v., rats) stood at 21100 ng·h/mL; in data set [8] (iv, 10 mg/kg, AUC0→t, Group 3 (20 mg/kg KTZ oral, 50 min before), CP 10 mg/kg i.v., rats) it was 28700 ng·h/mL; in data set [8] (iv, 10 mg/kg, AUC0→t, Group 4 (40 mg/kg KTZ oral, 50 min before), CP 10 mg/kg i.v., rats), 38200 ng·h/mL. Besides, the area under the curve AUC(0-inf) (in general, the area under the concentration-time curve extrapolated to infinity) in [8] (setting [11]) amounted to 15500 ng·h/mL; in data set [8] (setting [12]), 21900 ng·h/mL; in [8] (setting [13]) it was 29600 ng·h/mL; in data set [8] (setting [14]) it was 39000 ng·h/mL. In addition, the maximum concentration (Cmax) (in general, the maximum level reached in the sampled fluid or tissue) in data set [8] (iv, 10 mg/kg, Cmax, Group 1 (0 mg/kg KTZ), CP 10 mg/kg i.v., rats) is 9420 ng/mL; in data set [8] (iv, 10 mg/kg, Cmax, Group 2 (10 mg/kg KTZ oral, 50 min before), CP 10 mg/kg i.v., rats) it was 10400 ng/mL; in data set [8] (iv, 10 mg/kg, Cmax, Group 3 (20 mg/kg KTZ oral, 50 min before), CP 10 mg/kg i.v., rats) it was 11400 ng/mL; in data set [8] (iv, 10 mg/kg, Cmax, Group 4 (40 mg/kg KTZ oral, 50 min before), CP 10 mg/kg i.v., rats), 9600 ng/mL. Also, the MRT last (in general, the average time that molecules of a dose stay in the body) amounted to 1.7 ± 0.167 h in data set [8] (iv, 10 mg/kg, MRT0–t, Group 1 (0 mg/kg KTZ), CP 10 mg/kg i.v., rats); 1.72 ± 0.357 h in data set [8] (iv, 10 mg/kg, MRT0–t, Group 2 (10 mg/kg KTZ oral, 50 min before), CP 10 mg/kg i.v., rats); 2.04 ± 0.293 h in data set [8] (iv, 10 mg/kg, MRT0–t, Group 3 (20 mg/kg KTZ oral, 50 min before), CP 10 mg/kg i.v., rats); 2.65 ± 0.482 h in data set [8] (iv, 10 mg/kg, MRT0–t, Group 4 (40 mg/kg KTZ oral, 50 min before), CP 10 mg/kg i.v., rats). Besides, the MRT inf – broadly, the average time that molecules of a dose stay in the body – in data set [8] (setting [11]) is 1.9 ± 0.345 h; in data set [8] (setting [12]) it was 1.86 ± 0.6 h; in data set [8] (setting [13]), 2.12 ± 0.361 h; in data set [8] (setting [14]), 2.67 ± 0.505 h. Also, the Tmax – broadly, the time at which the peak concentration occurs – turned out to be 0.194 ± 0.086 h in data set [8] (iv, 10 mg/kg, Tmax, Group 1 (0 mg/kg KTZ), CP 10 mg/kg i.v., rats); 0.194 ± 0.086 h in data set [8] (iv, 10 mg/kg, Tmax, Group 2 (10 mg/kg KTZ oral, 50 min before), CP 10 mg/kg i.v., rats); 0.139 ± 0.086 h in data set [8] (iv, 10 mg/kg, Tmax, Group 3 (20 mg/kg KTZ oral, 50 min before), CP 10 mg/kg i.v., rats); 0.347 ± 0.327 h in [8] (iv, 10 mg/kg, Tmax, Group 4 (40 mg/kg KTZ oral, 50 min before), CP 10 mg/kg i.v., rats).
Turning to `CC(=O)N1CCN(c2ccc(OCC3COC(Cn4ccnc4)(c4ccc(Cl)cc4Cl)O3)cc2)CC1` (stereo not drawn) [KTZ, ketoconazole], in data set [2] (nominal 10 ng/ml), the “Short term stability, Measured” value is 9.97 ± 0.23 ng/mL; the “Short term stability, RE” value is on record as −0.30%; the “Long term stability, Measured” value is 9.55 ± 0.07 ng/mL; the “Long term stability, RE” value was −4.50%. Further, in data set [2] (nominal 10 ng/ml), the “Three freeze−thaw cycles, Measured” value worked out at 9.57 ± 0.23 ng/mL and the “Three freeze−thaw cycles, RE” value is recorded as −4.30%. Moreover, in data set [2] (nominal 40 ng/ml), the “Short term stability, Measured” value was 42.23 ± 0.76 ng/mL; the “Long term stability, Measured” value is 40.04 ± 0.57 ng/mL; the “Long term stability, RE” value is listed as 0.10%; the “Three freeze−thaw cycles, Measured” value came out at 39.46 ± 0.44 ng/mL. For the same compound, the “Three freeze−thaw cycles, RE” value in data set [2] (nominal 40 ng/ml) is on record as −1.35%. Further, in data set [2] (nominal 250 ng/ml), the “Short term stability, Measured” value was found to be 264.51 ± 38.66 ng/mL; the “Short term stability, RE” value is 5.80%; the “Long term stability, Measured” value is 259.01 ± 37.39 ng/mL; the “Long term stability, RE” value came to 3.64%. Besides, in data set [2] (nominal 250 ng/ml), the “Three freeze−thaw cycles, Measured” value was 254.65 ± 38.96 ng/mL and the “Three freeze−thaw cycles, RE” value was found to be 1.86%. Also, the “stability throughout the whole manipulation and storage processes” value in data set [2] is “stable”. For the same compound, the “toxicity (physiological aspects, data not shown)” value in data set [9] is “no obvious toxicity”. Besides, in data set [8] (po, 20 mg/kg), the AUC(0-t) amounted to 4730 ng·h/mL, the Cmax came out at 2050 ng/mL, the MRT last amounted to 1.86 ± 0.193 h and the Tmax came out at 0.514 ± 0.399 h. Further, the midpoint of inhibition in [10], the IC50, lay at 618 nM.
